Structures can show the parent of a compound that is named as a salt.
Assays:
Cop-1-reactive T cells = experiment: ELISA of BDNF secreted by Cop-1-reactive T cells; type: cell-based, Lewis rats; conditions: 48 h stimulation with antigen; for BDNF secreted by Cop-1-reactive T cells (mean): mean of three independent experiments, no antigen 400
Method: (iv) T-cell lines. Ten days after Cop-1 immunization, T-cell lines were generated from draining lymph node cells obtained from Lewis rats immunized with Cop-1 emulsified in CFA. The lymph nodes were surgically removed, dissociated, washed, and then activated with the antigen (10 μg/ml) in stimulation medium as previously reported (Kipnis et al., 2000). The T-cells lines were expanded by repeated stimulation and propagation.
(v) Enzyme-linked immunosorbent assay. T cell-reactive Cop-1 cells were grown for 1 week in a propagation medium, then washed with PBS and re-suspended in stimulation medium. The cultured T cells (0.5×10^6 cells/mL) were then incubated, in the presence of irradiated thymocytes (10^7 cells/mL), with concanavalin A (Con A; 1.25 μg/mL), myelin basic protein (MRP; 10 μg/ml), Cop-1 (10 μg/mL), ovalbumin (OVA; 10 μg/mL), or no antigen, in stimulation medium. After 48 h the cells were centrifaged and their supernatants were collected and sampled. Concentrations of brain-derived neurotrophic factor (BDNF) in the samples were determined with a sensitive sandwich ELISA. In brief 96-well flat-bottomed plates were coated with a chicken anti-human BDNF antibody (Promega, Madison, Wis.) in 0.025 M NaHCO3 and 0.025 M Na2CO3 (pH 8.2). Recombinant human BDNF (used as a standard; Research Diagnostics, Flanders, N.J.) was used in serial dilutions in blocking solution containing 3% bovine serum albumin, 0.05% polyoxyethylene-sorbitan monolaurate (Tween-20), and 1% fetal calf serum in PBS (pH 8.2). Bound BDNF was detected by incubating the plates with a mouse anti-human BDNF antibody (Research Diagnostics) and then with peroxidase-conjugated goat anti-mouse IgG (Jackson ImmunoResearch, West Grove, Pa.) in blocking solution. The plates were developed using a 3,3′,5,5′-tetramethylbenzidine liquid substrate system (Sigma-Aldrich). The reaction was stopped by adding 1M H3PO4, and the optical density was determined at 450 nm. Results for each experiment were calculated as the amount of secreted BDNF per 1 mL of sample, after subtraction of background levels of the irradiated thymocytes incubated with the stimulation medium.
Cop-1-reactive T cells were cultured for 48 h with Cop-1, MBP, ovalbumin, or concanavalin A in stimulation medium. T cell supernatants were collected and subjected to sandwich ELISA. […] Values are mean values (pg/ml) +/− SE (from three independent experiments) of the amounts of BDNF secreted by Cop-1-specific T cells in response to stimulation by various antigens.

[1] = tested on: C57BL/6J mice injected with MK-801 or AMPH; experiment: Prepulse inhibition (PPI) of the acoustic startle response after psychotomimetic drug; type: in vivo, mouse; conditions: vehicle (PBS/CFA)-immunized C57BL/6J mice; MK-801 0.1 mg/kg i.p. or AMPH 2.5 mg/kg i.p.
Method: (§1) (iii) Immunization. Each animal was injected with a total of 100 μg of Cop-1 emulsified in an equal volume of complete Freund's adjuvant (CPA) containing 5 mg/ml of Mycobacteria H37 RA (Difco). The emulsion, in a total volume of 0.1 mL, was injected into the flank 1 week before the mouse was first injected with a psychotomimetic drug. Control mice were injected with an equal volume of phosphate-buffered saline (PBS) emulsified in CFA.
(vi) Drug solutions. Fresh solutions of dizocilpine maleate (MK-801; Sigma-Aidrich) were prepared in physiological saline (0.9% NaCl in sterile distilled water) for each batch of mice. […]
(viii) Prepulse inhibition (PPT). […] Acoustic PPI was measured by prepuise plus pulse trials consisting of a 2-ms prepuise, 100 ms delay, and then a 40-ms, 120-dB startle pulse. […]
PPI was calculated as a percentage score for each acoustic prepulse trial type: % PPI=100. {[(startle response for prepuise+pulse)/(startle response for pulse-alone)]×100}. The magnitude of the acoustic startle response was calculated as the average response to all of the pulse-alone trials, excluding the first and last blocks of five pulse-alone trials each. […]
(xi) Acoustic startle response (ASR). […] The ASR and pre-pulse inhibition were measured using two ventilated startle chambers (SR-LAB system, San Diego Instruments, San Diego, Calif.). […] These readings (signals) were digitized and stored in a computer. […]

[2] = tested on: C57BL/6J mice injected with MK-801 or AMPH; experiment: Morris water maze (MWM) spatial learning/memory task after psychotomimetic drug; type: in vivo, mouse; conditions: C57BL/6J mice; MK-801 0.1 mg/kg i.p. or AMPH 2.5 mg/kg i.p.; relative to naive normal mice
Method: as §1
(vi) Drug solutions. Fresh solutions of dizocilpine maleate (MK-801; Sigma-Aidrich) were prepared in physiological saline (0.9% NaCl in sterile distilled water) for each batch of mice. Physiological saline was also used as a vehicle for D-amphetamine sulfate (AMPH: Sigma). MK-801. (0.1 mg/kg) or AMPH (2.5 mg/kg) or sahne was injected i.p., in a total volume of 5 ml per kg of body weight. Mice were injected with MK-801, AMPH, or vehicle 15 min before being subjected to behavioral tests.
(vii) Morris water maze (MWM) behavioral test. Spatial learning/memory was assessed by performance on a hippocampal-dependent visuospatial learning task in the MWM. Mice were given four trials per day, for four consecutive days, to find a hidden platform located 1.5 cm below the water surface in a pool 1.4 m in diameter. Within the testing room only distal visuo-spatial cues were available to the mice for location of the submerged platform. The escape latency, i.e., the time required by the mouse to find and climb onto the platform, was recorded for up to 60 s. Each mouse was allowed to remain on the platform for 30 s, and was then moved from the maze to its home cage. […] The inter-trial interval was 30 s. On day 5, the platform was removed from the pool, and each mouse was tested by a probe trial for 60 s. On days 6-7 the platform was placed at the opposite, location, and the mouse was retrained in four sessions. Data were recorded by using an EthoVision automated tracking system (Noldus Information Technology, Wageningen, The Netherlands). […]

Molecule	BDNF secreted by Cop-1-reactive T cells (mean) (Cop-1-reactive T cells) [pg/mL]	Effect of psychotomimetic drug on PPI of the ASR [1]	Effect of psychotomimetic drug on MWM spatial learning and memory performance [2]	Secretion of BDNF by Cop-1-reactive T cells compared with unstimulated T cells (Cop-1-reactive T cells)
concanavalin A [Con A]	1100	–	–	–
C[C@]12N[C@H](Cc3ccccc31)c1ccccc12 [MK-801, (+)dizocilpine maleate]	–	significantly disrupted PPI	significantly impaired	–
C[C@H](N)Cc1ccccc1 [AMPH, D-amphetamine sulfate]	–	significantly disrupted PPI	significantly impaired	–
myelin basic protein (protein, UniProt P02686 1-304, looked up) Myelin basic protein: MGNHAGKRELNAEKASTNSETNRGESEKKRNLGELSRTTSEDNEVFGEADANQNNGTSSQDTAVTDSKRTADPKNAWQDAHPADPGSRPHLIRLFSRDAPGREDNTFKDRPSESDELQTIQEDSAATSESLDVMASQKRPSQRHGSKYLATASTMDHARHGFLPRHRDTGILDSIGRFFGGDRGAPKRGSGKDSHHPARTAHYGSLPQKSHGRTQDENPVVHFFKNIVTPRTPPPSQGKGRGLSLSRFSWGAEGQRPGFGYGGRASDYKSAHKGFKGVDAQGTLSKIFKLGGRDSRSGSPMARR	1500	–	–	significantly increased
ovalbumin (protein, UniProt P01012 2-386, looked up) Ovalbumin: GSIGAASMEFCFDVFKELKVHHANENIFYCPIAIMSALAMVYLGAKDSTRTQINKVVRFDKLPGFGDSIEAQCGTSVNVHSSLRDILNQITKPNDVYSFSLASRLYAEERYPILPEYLQCVKELYRGGLEPINFQTAADQARELINSWVESQTNGIIRNVLQPSSVDSQTAMVLVNAIVFKGLWEKAFKDEDTQAMPFRVTEQESKPVQMMYQIGLFRVASMASEKMKILELPFASGTMSMLVLLPDEVSGLEQLESIINFEKLTEWTSSNVMEERKIKVYLPRMKMEEKYNLTSVLMAMGITDVFSSSANLSGISSAESLKISQAVHAAHAEINEAGREVVGSAEAGVDAASVSEEFRADHPFLFCIKHIATNAVLFFGRCVSP	440	–	–	–

Source: patent US20180207249A1, “METHOD AND VACCINE COMPRISING COPOLYMER 1 FOR TREATMENT OF PSYCHIATRIC DISORDERS” (YEDA RESEARCH AND DEVELOPMENT CO. LTD., priority 2003, published 2018)
